These results are taken from paper PMC8586704 (Frontiers in Chemistry, 2021).

Structures are written as SMILES. In brackets after ≈: the same amount, converted by molar mass. Where two headings read alike, the source gives them in different places. Starred links: 1 amine or outer side, 2 acyl side, 3 side chain; linkers in the order of their positions; H or OH if unused. Non-standard residues stand in square brackets, D forms with d. Residues, ends and D or L forms follow the SMILES beside them. X3 = O=C(Cc1ccc(F)cc1)Oc1ccc(C[C@H](N[*:1])C(=O)[*:2])cc1[N+](=O)[O-]; X4 = COC(=O)[C@H](CCSC)NC(=O)[C@@H](C)C[C@@H](C(=O)[*:2])N(C)[*:1]; Trp(1-(1,1-Me2-allyl)) = C=CC(C)(C)n1cc(C[C@H](N)C(=O)O)c2ccccc21; NMeGlu(4S-Me) = C[C@@H](C[C@@H](C(=O)[*:2])N(C)[*:1])C(=O)[*:3]; X14 = C[C@@H](C[C@@H](C(=O)[*:2])N(C)[*:1])C(=O)NCc1ccc(Cl)cc1; X9 = CSCCC(=O)Oc1ccc(C[C@H](N[*:1])C(=O)[*:2])cc1[N+](=O)[O-]; Tyr(3-NO2) = N[C@@H](Cc1ccc(O)c([N+](=O)[O-])c1)C(=O)O; Gly(E-crotyl) = C/C=C/C[C@H](N)C(=O)O; NMeL = CN[C@@H](CC(C)C)C(=O)O

Usually IC50 stands for the concentration that gives 50% inhibition.

The subject of one assay is HCT116. The experiment in a line: cells. The format is cell-based. To be noted: Homo sapiens, HCT-116; colon cancer cell line.
A further assay deals with Huvec-12. The experiment in a line: Cytotoxicity assay (CCK-8). The format is cell-based. The settings on record: normal human umbilical vein endothelial cell line.
A further assay relates to MCF-7. The experiment in a line: cells. Type of assay: cell-based. The settings on record: Homo sapiens, MCF7; breast adenocarcinoma cell line.
A further assay relates to L02. The assay can be described thus: cells. Type of assay: cell-based. To be noted: normal human hepatic cell line.
For another assay, the system named is HepG2. The experiment in a line: cells. Type of assay: cell-based. The settings on record: Homo sapiens, hepatocellular carcinoma cell line.
A further assay deals with HeLa. The assay can be described thus: cells. Type of assay: cell-based. To be noted: Homo sapiens, cervical carcinoma cell line.
A further assay deals with M. tuberculosis H37Rv. The assay can be described thus: Antitubercular activity assay, broth dilution, auto-luminescent strain. The format is cell-based, Mycobacterium tuberculosis. To be noted: Mycobacterium tuberculosis, H37RV.
For another assay, the system named is A549. The assay can be described thus: Cytotoxicity assay (CCK-8). Type of assay: cell-based. The settings on record: Homo sapiens, lung cancer cell line.
[1] abbreviates: Day 3rd, read-out: MICs against H37Rv, Day 3rd.
The mark [2] stands for this setting: Day 7th, read-out: MICs against H37Rv, Day 7th.
Setting [3] is: Day 14th, read-out: MICs against H37Rv, Day 14th.

With `C=CC(C)(C)n1cc(C[C@@H]2NC(=O)[C@H](C/C=C/C)NC(=O)[C@H](CC(C)C)NC(=O)[C@H](C[C@H](C)C(=O)O)N(C)C(=O)[C@H](C)NC(=O)[C@H](Cc3ccc(OC(=O)Cc4ccc(F)cc4)c([N+](=O)[O-])c3)NC(=O)[C@H](CC(C)C)N(C)C2=O)c2ccccc21` [Compound 17, ilamycin NJL17] (cyclo(A[NMeGlu(4S-Me)]L[Gly(E-crotyl)][Trp(1-(1,1-Me2-allyl))][NMeL][X3])), the half-maximal inhibitory concentration (IC50) in the assay on HCT116, with Huvec-12, with MCF-7, in the assay with L02, in the assay on HepG2 and with HeLa was > 50 µM throughout. Further, in the assay on A549, the IC50 was > 50 µM. The MIC in the assay on M. tuberculosis H37Rv (setting [1]), with M. tuberculosis H37Rv (setting [2]) and in the assay on M. tuberculosis H37Rv (setting [3]) was 27.2 µM (≈ 32.1 µg/mL) each time.

`C=CC(C)(C)n1cc(C[C@@H]2NC(=O)[C@H](C/C=C/C)NC(=O)[C@H](CC(C)C)NC(=O)[C@H](C[C@H](C)C(=O)O)N(C)C(=O)[C@H](C)NC(=O)[C@H](Cc3ccc(OC(=O)CCSC)c([N+](=O)[O-])c3)NC(=O)[C@H](CC(C)C)N(C)C2=O)c2ccccc21` [Compound 18, ilamycin NJL18] (cyclo(A[NMeGlu(4S-Me)]L[Gly(E-crotyl)][Trp(1-(1,1-Me2-allyl))][NMeL][X9])): the 50% inhibitory concentration (IC50) in the assay on HCT116, in the assay with Huvec-12, in the assay on MCF-7, with L02, in the assay with HepG2 and in the assay on HeLa was > 50 µM each time. Also, the IC50 with A549 was > 50 µM. Further, the MIC in the assay with M. tuberculosis H37Rv (setting [1]), in the assay on M. tuberculosis H37Rv (setting [2]) and in the assay with M. tuberculosis H37Rv (setting [3]) was 28 µM (≈ 32 µg/mL) each time.

With `C=CC(C)(C)n1cc(C[C@@H]2NC(=O)[C@H](C/C=C/C)NC(=O)[C@H](CC(C)C)NC(=O)[C@H](C[C@H](C)C(=O)N[C@@H](CCSC)C(=O)OC)N(C)C(=O)[C@H](C)NC(=O)[C@H](Cc3ccc(O)c([N+](=O)[O-])c3)NC(=O)[C@H](CC(C)C)N(C)C2=O)c2ccccc21` [Compound 2, ilamycin NJL2] (cyclo(A[X4]L[Gly(E-crotyl)][Trp(1-(1,1-Me2-allyl))][NMeL][Tyr(3-NO2)])), the IC50 with HCT116, with Huvec-12, with MCF-7, with L02, with HepG2 and in the assay on HeLa was > 50 µM in each case. Moreover, the IC50 in the assay with A549 was > 50 µM. Also, the figures for the MIC with M. tuberculosis H37Rv (setting [1]), with M. tuberculosis H37Rv (setting [2]) and with M. tuberculosis H37Rv (setting [3]) were 6.7 µM (≈ 7.96 µg/mL), 6.7 µM (≈ 7.96 µg/mL) and 3.4 µM (≈ 4.04 µg/mL), respectively.

Take `C=CC(C)(C)n1cc(C[C@@H]2NC(=O)[C@H](C/C=C/C)NC(=O)[C@H](CC(C)C)NC(=O)[C@H](C[C@H](C)C(=O)NCc3ccc(Cl)cc3)N(C)C(=O)[C@H](C)NC(=O)[C@H](Cc3ccc(O)c([N+](=O)[O-])c3)NC(=O)[C@H](CC(C)C)N(C)C2=O)c2ccccc21` [Compound 11, ilamycin NJL11] (cyclo(A[X14]L[Gly(E-crotyl)][Trp(1-(1,1-Me2-allyl))][NMeL][Tyr(3-NO2)])): the IC50 with HCT116, in the assay with Huvec-12, in the assay on MCF-7, in the assay on L02, in the assay on HepG2 and in the assay on HeLa was > 50 µM in each case. In the assay on A549, the 50% inhibitory concentration (IC50) is > 50 µM. The MIC in the assay on M. tuberculosis H37Rv (setting [1]), in the assay with M. tuberculosis H37Rv (setting [2]) and in the assay with M. tuberculosis H37Rv (setting [3]) was 3.4 µM (≈ 3.96 µg/mL) throughout.
